Test results as given in patent US8691865B2 (AbbVie Inc., priority 2008, dated 2014).

These compounds were tested against human Cav2.2 (Homo sapiens, UniProt Q00975) (assay: Assessment of calcium channel activity using FLIPR (Ca2+ influx in IMR32 cells)). Details: not given.
Format: cell-based
Experimental: (i) In Vitro Methods—Assessment of Calcium Channel Activity Using FLIPR:
The IMR32 cells were maintained in MEM media containing 10% (v/v) FBS, 1% (v/v) antibiotic/antimitotic, 1% (v/v) sodium pyruvate and 1% (v/v) MEM NEAA. Following dissociation in 0.05% (v/v) trypsin/EDTA, cells were seeded into black 1×96-well plates (Corning Cellbind) at a density of 1−1.2×10^5 cells/well and incubated in the maintenance media above for 48 hours at 37° C. […] To determine the IC50 values, the percent inhibition of the compound at each concentration was determined relative to the activity in the absence of inhibitor, and data was fitted using non-linear regression sigmoidal dose response curve analysis with GraphPad Prism®.

Chain of human Cav2.2 (Q00975 whole entry): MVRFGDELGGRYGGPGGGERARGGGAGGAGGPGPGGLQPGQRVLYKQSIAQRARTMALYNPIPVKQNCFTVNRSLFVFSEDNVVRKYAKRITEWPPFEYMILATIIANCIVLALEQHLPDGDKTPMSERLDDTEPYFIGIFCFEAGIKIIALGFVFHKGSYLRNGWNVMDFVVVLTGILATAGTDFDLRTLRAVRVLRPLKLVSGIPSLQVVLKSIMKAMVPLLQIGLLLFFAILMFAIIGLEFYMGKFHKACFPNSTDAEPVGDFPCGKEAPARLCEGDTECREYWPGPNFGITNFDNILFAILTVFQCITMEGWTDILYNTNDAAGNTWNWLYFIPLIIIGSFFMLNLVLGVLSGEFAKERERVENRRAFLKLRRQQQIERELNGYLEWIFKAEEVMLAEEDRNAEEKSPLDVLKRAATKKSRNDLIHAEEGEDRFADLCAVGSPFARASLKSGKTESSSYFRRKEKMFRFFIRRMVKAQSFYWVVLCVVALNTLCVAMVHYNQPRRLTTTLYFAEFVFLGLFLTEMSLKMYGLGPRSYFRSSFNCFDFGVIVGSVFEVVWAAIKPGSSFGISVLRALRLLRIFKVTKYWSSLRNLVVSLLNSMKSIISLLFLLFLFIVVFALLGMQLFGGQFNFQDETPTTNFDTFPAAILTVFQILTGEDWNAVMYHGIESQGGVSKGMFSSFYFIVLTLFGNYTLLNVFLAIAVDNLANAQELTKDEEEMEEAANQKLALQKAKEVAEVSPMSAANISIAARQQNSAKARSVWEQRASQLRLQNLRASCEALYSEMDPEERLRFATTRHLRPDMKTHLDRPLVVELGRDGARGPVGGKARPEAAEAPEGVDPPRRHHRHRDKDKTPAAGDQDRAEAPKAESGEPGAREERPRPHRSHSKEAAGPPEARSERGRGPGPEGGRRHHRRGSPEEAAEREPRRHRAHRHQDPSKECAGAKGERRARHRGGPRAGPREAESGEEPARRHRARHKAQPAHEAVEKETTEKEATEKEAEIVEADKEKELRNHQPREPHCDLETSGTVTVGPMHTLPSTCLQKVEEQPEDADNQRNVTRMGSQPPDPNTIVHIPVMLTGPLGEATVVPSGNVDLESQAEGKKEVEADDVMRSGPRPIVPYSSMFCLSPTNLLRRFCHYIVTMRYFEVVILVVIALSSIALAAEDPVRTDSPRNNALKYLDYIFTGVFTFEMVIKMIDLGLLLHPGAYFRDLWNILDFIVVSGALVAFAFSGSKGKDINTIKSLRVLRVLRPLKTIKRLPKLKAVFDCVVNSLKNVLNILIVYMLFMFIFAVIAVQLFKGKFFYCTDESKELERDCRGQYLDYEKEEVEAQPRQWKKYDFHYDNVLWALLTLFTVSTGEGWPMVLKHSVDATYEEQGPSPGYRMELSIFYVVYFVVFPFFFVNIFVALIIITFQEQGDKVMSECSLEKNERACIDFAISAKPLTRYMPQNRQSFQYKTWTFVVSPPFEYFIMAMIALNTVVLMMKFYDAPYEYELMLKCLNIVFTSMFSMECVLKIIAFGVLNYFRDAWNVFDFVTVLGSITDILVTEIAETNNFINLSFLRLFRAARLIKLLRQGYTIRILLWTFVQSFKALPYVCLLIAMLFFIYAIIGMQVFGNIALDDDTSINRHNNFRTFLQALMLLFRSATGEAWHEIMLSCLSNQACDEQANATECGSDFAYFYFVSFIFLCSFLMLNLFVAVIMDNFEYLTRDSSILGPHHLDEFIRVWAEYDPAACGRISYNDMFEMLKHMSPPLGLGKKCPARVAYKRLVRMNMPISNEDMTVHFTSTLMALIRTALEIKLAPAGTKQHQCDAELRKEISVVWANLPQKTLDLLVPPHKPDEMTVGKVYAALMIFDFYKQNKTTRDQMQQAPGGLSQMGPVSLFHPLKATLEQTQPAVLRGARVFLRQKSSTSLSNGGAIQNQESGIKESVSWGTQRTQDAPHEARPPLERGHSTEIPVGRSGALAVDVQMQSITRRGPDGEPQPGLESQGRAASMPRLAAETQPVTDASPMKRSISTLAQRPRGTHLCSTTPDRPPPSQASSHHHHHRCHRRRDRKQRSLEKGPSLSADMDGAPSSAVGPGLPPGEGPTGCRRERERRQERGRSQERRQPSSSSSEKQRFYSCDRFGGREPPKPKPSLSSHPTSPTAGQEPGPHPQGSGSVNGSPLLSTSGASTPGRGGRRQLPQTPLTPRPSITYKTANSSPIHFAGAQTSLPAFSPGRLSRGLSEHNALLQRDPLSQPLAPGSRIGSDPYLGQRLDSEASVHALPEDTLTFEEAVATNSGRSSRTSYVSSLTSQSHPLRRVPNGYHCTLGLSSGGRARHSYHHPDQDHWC
Chain of human Cav2.2 (P54289 25-956 partner limits assumed): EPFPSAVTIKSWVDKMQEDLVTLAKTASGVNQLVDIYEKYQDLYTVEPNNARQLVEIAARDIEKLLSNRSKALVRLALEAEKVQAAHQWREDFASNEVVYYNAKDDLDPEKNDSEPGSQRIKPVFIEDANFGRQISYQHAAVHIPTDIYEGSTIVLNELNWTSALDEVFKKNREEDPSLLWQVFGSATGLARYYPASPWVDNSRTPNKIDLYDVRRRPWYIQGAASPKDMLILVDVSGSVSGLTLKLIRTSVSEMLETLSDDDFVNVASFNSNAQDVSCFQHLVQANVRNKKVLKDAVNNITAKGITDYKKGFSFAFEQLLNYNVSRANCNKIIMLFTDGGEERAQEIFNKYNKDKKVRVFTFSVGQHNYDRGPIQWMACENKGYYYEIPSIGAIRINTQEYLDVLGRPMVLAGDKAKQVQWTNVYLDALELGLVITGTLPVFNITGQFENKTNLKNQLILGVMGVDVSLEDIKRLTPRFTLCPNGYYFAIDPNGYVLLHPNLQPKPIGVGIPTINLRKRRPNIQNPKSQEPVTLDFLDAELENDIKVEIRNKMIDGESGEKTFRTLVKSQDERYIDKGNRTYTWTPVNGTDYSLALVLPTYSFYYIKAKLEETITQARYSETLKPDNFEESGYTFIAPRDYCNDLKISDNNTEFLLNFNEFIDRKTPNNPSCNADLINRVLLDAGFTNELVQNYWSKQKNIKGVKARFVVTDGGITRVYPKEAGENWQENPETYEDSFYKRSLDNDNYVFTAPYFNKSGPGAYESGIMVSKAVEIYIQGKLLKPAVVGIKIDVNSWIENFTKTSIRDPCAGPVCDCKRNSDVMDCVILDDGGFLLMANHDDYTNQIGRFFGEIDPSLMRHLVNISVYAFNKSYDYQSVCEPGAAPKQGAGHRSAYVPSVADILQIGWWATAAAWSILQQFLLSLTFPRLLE
Chain of human Cav2.2 (P54289 957-1103 partner limits assumed): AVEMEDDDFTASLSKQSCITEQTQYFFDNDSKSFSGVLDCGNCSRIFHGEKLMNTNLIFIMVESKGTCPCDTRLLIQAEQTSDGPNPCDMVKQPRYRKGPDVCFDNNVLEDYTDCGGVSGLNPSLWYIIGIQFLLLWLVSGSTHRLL
Chain of human Cav2.2 (P54284 whole entry partner): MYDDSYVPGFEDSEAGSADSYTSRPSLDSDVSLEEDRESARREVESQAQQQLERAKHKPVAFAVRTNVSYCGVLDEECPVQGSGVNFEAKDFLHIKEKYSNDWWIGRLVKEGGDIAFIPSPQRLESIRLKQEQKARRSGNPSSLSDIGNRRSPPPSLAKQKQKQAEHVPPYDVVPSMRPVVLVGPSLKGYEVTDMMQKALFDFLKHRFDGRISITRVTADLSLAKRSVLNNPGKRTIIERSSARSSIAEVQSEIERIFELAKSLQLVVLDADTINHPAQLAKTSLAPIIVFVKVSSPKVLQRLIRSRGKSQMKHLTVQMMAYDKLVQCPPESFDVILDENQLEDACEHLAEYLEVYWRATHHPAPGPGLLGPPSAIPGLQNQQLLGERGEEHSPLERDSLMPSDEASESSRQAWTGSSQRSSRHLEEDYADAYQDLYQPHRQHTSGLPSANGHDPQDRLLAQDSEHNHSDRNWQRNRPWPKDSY

Row | Structure (SMILES) | IC50 [µM]
1 | O=S(=O)(N[C@H]1CC[C@@H]2CN(c3cccc(C(F)(F)F)n3)C[C@@H]21)c1ccc(F)c(Cl)c1 [Example 710, 3-chloro-4-fluoro-N-{(3aR,4S,6aS)-2-[6-(trifluoromethyl)pyridin-2-yl]octahydrocyclopenta[c]pyrrol-4-yl}benzenesulfonamide] | 5.56
2 | CCC[C@H](NC)C(=O)N[C@H]1CC[C@@H]2CN(Cc3ccccc3)C[C@@H]21 [Example 365, N^1-[(3aR,4S,6aS)-2-benzyloctahydrocyclopenta[c]pyrrol-4-yl]-N^2-methyl-L-norvalinamide] | > 30
3 | CN[C@@H](CC(C)C)C(=O)N[C@H]1CC[C@@H]2CN(c3ncc(C(F)(F)F)cc3Br)C[C@@H]21 [Example 766, N-{(3aR,4S,6aS)-2-[3-bromo-5-(trifluoromethyl)pyridin-2-yl]octahydrocyclopenta[c]pyrrol-4-yl}-N^2-methyl-L-leucinamide] | 0.63
4 | CN[C@@H](CC(C)C)C(=O)N[C@H]1CC[C@@H]2CN(c3ccc(OC(F)(F)F)cc3F)C[C@@H]21 [Example 774, N-{(3aR,4S,6aS)-2-[2-fluoro-4-(trifluoromethoxy)phenyl]octahydrocyclopenta[c]pyrrol-4-yl}-N^2-methyl-L-leucinamide] | 1.15
5 | O=C(N[C@H]1CC[C@@H]2CN(c3cccc(C(F)(F)F)n3)C[C@@H]21)c1ccc2ccccc2n1 [Example 569, N-{(3aR,4S,6aS)-2-[6-(trifluoromethyl)pyridin-2-yl]octahydrocyclopenta[c]pyrrol-4-yl}quinoline-2-carboxamide] | 0.98
6 | FC(F)(F)c1cccc(N2C[C@H]3CC[C@H](NCc4c[nH]c(-c5ccccc5)n4)[C@H]3C2)n1 [Example 688, (3aR,4S,6aS)-N-[(2-phenyl-1H-imidazol-4-yl)methyl]-2-[6-(trifluoromethyl)pyridin-2-yl]octahydrocyclopenta[c]pyrrol-4-amine] | 1.03
7 | FC(F)(F)c1cccc(N2C[C@H]3CC[C@H](NCc4[nH]c5ccccc5c4Cl)[C@H]3C2)n1 [Example 679, (3aR,4S,6aS)-N-[(3-chloro-1H-indol-2-yl)methyl]-2-[6-(trifluoromethyl)pyridin-2-yl]octahydrocyclopenta[c]pyrrol-4-amine] | 1.62
8 | FC(F)(F)c1cccc(N2C[C@H]3CC[C@H](NCc4cc5ccncc5s4)[C@H]3C2)n1 [Example 721, (3aR,4S,6aS)-N-(thieno[2,3-c]pyridin-2-ylmethyl)-2-[6-(trifluoromethyl)pyridin-2-yl]octahydrocyclopenta[c]pyrrol-4-amine] | 0.87
9 | CN[C@@H](CC(C)C)C(=O)N[C@H]1CC[C@@H]2CN(c3cccc(F)c3F)C[C@@H]21 [Example 730, N-[(3aR,4S,6aS)-2-(2,3-difluorophenyl)octahydrocyclopenta[c]pyrrol-4-yl]-N^2-methyl-L-leucinamide] | 1.26
10 | O=S(=O)(N[C@H]1CC[C@@H]2CN(c3cccc(C(F)(F)F)n3)C[C@@H]21)c1ccc(Cl)cc1 [Example 700, 4-chloro-N-{(3aR,4S,6aS)-2-[6-(trifluoromethyl)pyridin-2-yl]octahydrocyclopenta[c]pyrrol-4-yl}benzenesulfonamide] | 4.96
11 | FC(F)(F)c1cccc(N2C[C@H]3CC[C@H](NCc4cn[nH]c4)[C@H]3C2)n1 [Example 696, (3aR,4S,6aS)-N-(1H-pyrazol-4-ylmethyl)-2-[6-(trifluoromethyl)pyridin-2-yl]octahydrocyclopenta[c]pyrrol-4-amine] | 3.52
12 | Cc1ccc(C(=O)N[C@H]2CC[C@@H]3CN(c4cccc(C(F)(F)F)n4)C[C@@H]32)o1 [Example 576, 5-methyl-N-{(3aR,4S,6aS)-2-[6-(trifluoromethyl)pyridin-2-yl]octahydrocyclopenta[c]pyrrol-4-yl}-2-furamide] | 1.08
13 | CC(C)(C)[C@H](N)C(=O)N[C@H]1CC[C@@H]2CN(Cc3ccccc3)C[C@@H]21 [Example 357, N^1-[(3aR,4S,6aS)-2-benzyloctahydrocyclopenta[c]pyrrol-4-yl]-3-methyl-L-valinamide] | > 30
14 | CN(C)[C@@H](CC1CC1)C(=O)N[C@H]1CC[C@@H]2CN(c3ccc(OC(F)(F)F)cc3)C[C@@H]21 [Example 777, 3-cyclopropyl-N^2,N^2-dimethyl-N-{(3aR,4S,6aS)-2-[4-(trifluoromethoxy)phenyl]octahydrocyclopenta[c]pyrrol-4-yl}-L-alaninamide] | 2.16

Continued, values first:

Row | IC50 [µM] | Structure (SMILES)
15 | 14.7 | O=C(N[C@H]1CC[C@@H]2CN(c3ccccc3F)C[C@@H]21)[C@@H]1C[C@@H](F)CN1 [Example 661, (4R)-4-fluoro-N-[(3aR,4S,6aS)-2-(2-fluorophenyl)octahydrocyclopenta[c]pyrrol-4-yl]-L-prolinamide]
16 | 4 | FC(F)(F)c1cccc(N2C[C@H]3CC[C@H](NCc4c[nH]nn4)[C@H]3C2)n1 [Example 694, (3aR,4S,6aS)-N-(1H-1,2,3-triazol-4-ylmethyl)-2-[6-(trifluoromethyl)pyridin-2-yl]octahydrocyclopenta[c]pyrrol-4-amine]
17 | 1.13 | CN[C@H](C(=O)N[C@H]1CC[C@@H]2CN(c3cccc(C(F)(F)F)c3)C[C@@H]21)C(C)C [Example 757, N^2-methyl-N-{(3aR,4S,6aS)-2-[3-(trifluoromethyl)phenyl]octahydrocyclopenta[c]pyrrol-4-yl}-L-valinamide]
18 | 2.99 | FC(F)(F)c1cccc(N2C[C@H]3CC[C@H](NCc4cc5cc(Cl)ccc5[nH]4)[C@H]3C2)n1 [Example 665, (3aR,4S,6aS)-N-[(5-chloro-1H-indol-2-yl)methyl]-2-[6-(trifluoromethyl)pyridin-2-yl]octahydrocyclopenta[c]pyrrol-4-amine]
19 | 1.46 | O=C(N[C@H]1CC[C@H]2CN(Cc3cccc(C(F)(F)F)c3)C[C@H]21)C(O)C1CCCCC1 (stereo partly drawn) [Example 237, 2-cyclohexyl-2-hydroxy-N-{(3aS,4S,6aR)-2-[3-(trifluoromethyl)benzyl]octahydrocyclopenta[c]pyrrol-4-yl}acetamide]
20 | > 9.5 | CN[C@@H](C)C(=O)N[C@H]1CC[C@@H]2CN(c3ccc(C(F)(F)F)cc3)C[C@@H]21 [Example 753, N^2-methyl-N-{(3aR,4S,6aS)-2-[4-(trifluoromethyl)phenyl]octahydrocyclopenta[c]pyrrol-4-yl}-L-alaninamide]
21 | 1.32 | O=C(N[C@H]1CC[C@@H]2CN(c3cccc(C(F)(F)F)c3F)C[C@@H]21)[C@@H]1C[C@@H](F)CN1 [Example 623, (4R)-4-fluoro-N-{(3aR,4S,6aS)-2-[2-fluoro-3-(trifluoromethyl)phenyl]octahydrocyclopenta[c]pyrrol-4-yl}-L-prolinamide]
22 | 7.03 | O=C(N[C@H]1CC[C@@H]2CN(c3ncccc3C(F)(F)F)C[C@@H]21)[C@@H]1C[C@@H](F)CN1 [Example 660, (4R)-4-fluoro-N-{(3aR,4S,6aS)-2-[3-(trifluoromethyl)pyridin-2-yl]octahydrocyclopenta[c]pyrrol-4-yl}-L-prolinamide]
23 | 0.69 | Fc1ccc2[nH]cc(CN[C@H]3CC[C@@H]4CN(c5cccc(C(F)(F)F)n5)C[C@@H]43)c2c1 [Example 678, (3aR,4S,6aS)-N-[(5-fluoro-1H-indol-3-yl)methyl]-2-[6-(trifluoromethyl)pyridin-2-yl]octahydrocyclopenta[c]pyrrol-4-amine]

Same assay, conditions: read-out: IC50 (μM) or percent inhibition (* indicates 3 minute incubation, otherwise 60 minute); IC50; 60 minute pre-incubation with compound; IMR32 cells, 80 mM KCl depolarization

Row | Structure (SMILES) | IC50 [µM]
24 | CC(C)C[C@@H](C(=O)N[C@@H]1CC[C@@H]2CN(Cc3ccccc3)C[C@@H]21)N(C)C(=O)OC(C)(C)C [Example 241] | 2.08
25 | CN(C(=O)OC(C)(C)C)[C@@H](CC(C)(C)C)C(=O)N(CC1CC1)[C@H]1CC[C@@H]2CN(S(=O)(=O)c3ccc(C(F)(F)F)cc3)C[C@@H]21 [Example 298] | 8.99
26 | CC(C)[C@H](N)CC(=O)N[C@@H]1CC[C@H]2CN(S(=O)(=O)c3cccc(C(F)(F)F)c3)C[C@H]21 [Example 397, (3R)-3-amino-4-methyl-N-((3aS,4R,6aR)-2-{[3-(trifluoromethyl)phenyl]sulfonyl}octahydrocyclopenta[c]pyrrol-4-yl)pentanamide] | 1.46
27 | CC(C)C(C(=O)N[C@H]1CC[C@@H]2CN(CCCc3cc(F)cc(Cl)c3)C[C@@H]21)c1ccccc1 (stereo partly drawn) [Example 114, N-{(3aR,4S,6aS)-2-[3-(3-chloro-5-fluorophenyl)propyl]octahydrocyclopenta[c]pyrrol-4-yl}-3-methyl-2-phenylbutanamide] | 2.81

The next lines start with the values.

Row | IC50 [µM] | Structure (SMILES)
28 | 1.28 | CC(C)C[C@H](C(=O)N1C[C@@H]2CC[C@@H](NC(=O)C(C3CCCCC3)C3CCCCC3)[C@@H]2C1)N(C)C [Example 217, 2,2-dicyclohexyl-N-[(3aS,4R,6aR)-2-(N,N-dimethyl-D-leucyl)octahydrocyclopenta[c]pyrrol-4-yl]acetamide]
29 | 1.64 | Cc1ccc(CN2C[C@@H]3CC[C@H](NC(=O)C(C4CCCCC4)C4CCCCC4)[C@@H]3C2)cc1 [Example 62, 2,2-dicyclohexyl-N-[(3aS,4S,6aR)-2-(4-methylbenzyl)octahydrocyclopenta[c]pyrrol-4-yl]acetamide]
30 | 3.5 | O=S(=O)(c1cccc(C(F)(F)F)c1)N1C[C@@H]2CC[C@@H](NC(c3ccccc3)c3ccccc3)[C@@H]2C1 [Example 467, (3aS,4R,6aR)-N-benzhydryl-2-{[3-(trifluoromethyl)phenyl]sulfonyl}octahydrocyclopenta[c]pyrrol-4-amine]
31 | 0.94 | O=C(N[C@@H]1CC[C@H]2CN(CCC(c3ccccc3)c3ccccc3)C[C@H]21)C(C1CCCCC1)C1CCCCC1 [Example 79, 2,2-dicyclohexyl-N-[(3aS,4R,6aR)-2-(3,3-diphenylpropyl)octahydrocyclopenta[c]pyrrol-4-yl]acetamide]
